According to patent publication US11021448B2, “1,3-dihydro-1,4-benzodiazepine-2-thiones for the treatment of CNS related diseases” (priority 2016, dated 2021):
Where two headings read alike, the source gives them in different places.

Target: T1, hM1 (Homo sapiens, UniProt P11229)
T1 construct: expressed in transfected cells; host or cells: CHO
T1 sequence (P11229 1-460): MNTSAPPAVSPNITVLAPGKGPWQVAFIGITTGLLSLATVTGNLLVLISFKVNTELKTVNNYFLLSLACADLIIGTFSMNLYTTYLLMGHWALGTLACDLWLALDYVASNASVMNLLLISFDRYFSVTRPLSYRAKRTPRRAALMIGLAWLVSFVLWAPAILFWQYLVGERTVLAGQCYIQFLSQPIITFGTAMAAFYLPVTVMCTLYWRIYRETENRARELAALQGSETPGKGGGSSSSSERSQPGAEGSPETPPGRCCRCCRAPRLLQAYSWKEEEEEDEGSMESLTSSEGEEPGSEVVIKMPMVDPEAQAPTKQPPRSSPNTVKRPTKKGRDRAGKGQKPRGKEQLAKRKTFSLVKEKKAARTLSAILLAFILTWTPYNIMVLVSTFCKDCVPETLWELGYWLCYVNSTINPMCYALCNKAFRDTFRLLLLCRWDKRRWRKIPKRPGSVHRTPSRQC
Test: FLIPR intracellular calcium assay for modulator activity at the muscarinic M1 receptor in CHO human M1 cells
Type: cell-based
Procedure: The assay study the effect of several concentrations of test compounds on basal or acetylcholine-stimulated Ca^2+ levels using FLIPR.
The cell plate and the diluted compounds (1% DMSO final concentration) are placed on the platform of the FLIPR and the door closed. A signal test to check background fluorescence and basal fluorescence signal is performed. Laser intensity is adjusted if necessary. Two minutes preincubation with the diluted test compounds is provide to determine any agonist activity on the M1 receptor by comparison to 30 nM Acetylcholine control. In order to determine any modulator activity the diluted compounds were added to cells and after two minutes preincubation, the EC20 of acetylcholine is added followed by another two minutes preincubation before the measurement of intracellular Ca^2+ with a FLIPR (Molecular Devices).

[1] = CHO human M1, with EC20 of acetylcholine, FLIPR, read-out: IC50 value hM1 (converted)

## S=C1Nc2ccc(Cl)cc2C(c2ccccc2)=N[C@@H]1Cc1ccccc1 (single isomer, unassigned) [Example 21]
  IC50: 1.14 µM

## S=C1Nc2ccc(Cl)cc2C(c2ccccc2)=N[C@H]1Cc1ccccc1 (single isomer, unassigned) [Example 30]
  IC50: 0.251 µM

## CC(C)[C@@H]1N=C(c2ccc(F)cc2)c2cc(OC(F)(F)F)ccc2NC1=S [Example 1, (3S)-5-(4-fluorophenyl)-3-isopropyl-7-(trifluoromethoxy)-1,3-dihydro-1,4-benzodiazepine-2-thione]
[1]
  IC50: 0.312 µM

## CC(C)[C@@H]1N=C(c2ccccn2)c2cc(Br)ccc2NC1=S [Example 2, (3S)-7-bromo-3-propan-2-yl-5-pyridin-2-yl-1,3-dihydro-1,4-benzodiazepine-2-thione]
  IC50: 0.289 µM

## S=C1Nc2ccc(Cl)cc2C(c2ccccc2)=N[C@H]1CC1CC1 [Example 3, (3S)-7-chloro-3-(cyclopropylmethyl)-5-phenyl-1,3-dihydro-1,4-benzodiazepine-2-thione]
  IC50: 0.311 µM

## CC[C@@H]1N=C(c2ccccc2)c2cc(Cl)ccc2NC1=S [Example 4, (3S)-7-chloro-3-ethyl-5-phenyl-1,3-dihydro-1,4-benzodiazepine-2-thione]
  IC50: 0.103 µM

## CCC[C@]1(C)N=C(c2ccccc2)c2cc(Cl)ccc2NC1=S [Example 6, (3S)-7-chloro-3-methyl-5-phenyl-3-propyl-1H-1,4-benzodiazepine-2-thione]
  IC50: 0.104 µM

## CCC[C@@H]1N=C(c2ccccc2)c2cc(Cl)ccc2NC1=S [Example 7, (3S)-7-chloro-5-phenyl-3-propyl-1,3-dihydro-1,4-benzodiazepine-2-thione]
  IC50: 0.187 µM

## FC(F)(F)C[C@@H]1N=C(c2ccccc2)c2cc(Cl)ccc2NC1=S [Example 8, (3S)-7-chloro-5-phenyl-3-(2,2,2-trifluoroethyl)-1,3-dihydro-1,4-benzodiazepine-2-thione]
  IC50: 0.238 µM

## CSCC[C@H]1N=C(c2ccccc2)c2cc(Cl)ccc2NC1=S [Example 9, (3R)-7-chloro-3-(2-methylsulfanylethyl)-5-phenyl-1,3-dihydro-1,4-benzodiazepine-2-thione]
  IC50: 0.504 µM

## Fc1ccccc1C1=N[C@@H](C(F)(F)F)C(=S)Nc2ccc(Cl)cc21 [Example 10, (3S)-7-chloro-5-(2-fluorophenyl)-3-(trifluoromethyl)-1,3-dihydro-1,4-benzodiazepine-2-thione]
  IC50: 0.61 µM

## Fc1ccccc1C1=N[C@H](C(F)(F)F)C(=S)Nc2ccc(Cl)cc21 [Example 11, (3R)-7-chloro-5-(2-fluorophenyl)-3-(trifluoromethyl)-1,3-dihydro-1,4-benzodiazepine-2-thione]
  IC50: 0.622 µM

## CC1N=C(c2ccccc2)c2cc([N+](=O)[O-])ccc2NC1=S (stereo not shown) [Example 12, 3-methyl-7-nitro-5-phenyl-1,3-dihydro-1,4-benzodiazepine-2-thione]
  IC50: 0.732 µM

## Cc1ccc2c(c1)C(c1ccccc1F)=N[C@@H](C(C)C)C(=S)N2 [Example 13, (3S)-5-(2-fluorophenyl)-3-isopropyl-7-methyl-1,3-dihydro-1,4-benzodiazepine-2-thione]
  IC50: 0.062 µM

## CC(C)C1N=C(c2ccccc2)c2cc(Cl)ccc2NC1=S (stereo not shown) [Example 15, 7-chloro-3-isopropyl-5-phenyl-1,3-dihydro-1,4-benzodiazepine-2-thione]
  IC50: 0.064 µM

## CC(C)[C@@H]1N=C(c2ccccc2)c2cc(Cl)ccc2NC1=S [Example 16, (3S)-7-chloro-3-isopropyl-5-phenyl-1,3-dihydro-1,4-benzodiazepine-2-thione]
  IC50: 0.07 µM

## CCCC1=NCC(=S)Nc2ccc(Cl)cc21 [Example 17, 7-chloro-5-propyl-1,3-dihydro-1,4-benzodiazepine-2-thione]
[1]
  IC50: 1.28 µM

## CC(C)[C@@H]1N=C(c2ccccc2)c2cc(C(F)(F)F)ccc2NC1=S [Example 18, (3S)-3-isopropyl-5-phenyl-7-(trifluoromethyl)-1,3-dihydro-1,4-benzodiazepine-2-thione]
  IC50: 0.071 µM

## CC(C)[C@@H]1N=C(c2ccccc2)c2cc(-c3ccccc3)ccc2NC1=S [Example 19, (3S)-3-isopropyl-5,7-diphenyl-1,3-dihydro-1,4-benzodiazepine-2-thione]
  IC50: 1.47 µM

## FC(F)(F)c1ccc2c(c1)C(C1CCCCC1)=NCC(=S)N2 [Example 20, 5-cyclohexyl-7-(trifluoromethyl)-1,3-dihydro-1,4-benzodiazepine-2-thione]
  IC50: 1.95 µM

## CC(C)[C@@H]1N=C(c2cccc(Cl)c2)c2cc(Cl)ccc2NC1=S [Example 22, (3S)-7-chloro-5-(3-chlorophenyl)-3-isopropyl-1,3-dihydro-1,4-benzodiazepine-2-thione]
  IC50: 0.172 µM

## CC(C)[C@@H]1N=C(c2ccccc2F)c2ccc(Cl)cc2NC1=S [Example 23, (3S)-8-chloro-5-(2-fluorophenyl)-3-isopropyl-1,3-dihydro-1,4-benzodiazepine-2-thione]
  IC50: 0.399 µM

## S=C1Nc2ccc(Cl)cc2C(c2ccccc2)=N[C@H]1C1CC1 [Example 24, (3S)-7-chloro-3-cyclopropyl-5-phenyl-1,3-dihydro-1,4-benzodiazepine-2-thione]
  IC50: 0.165 µM

## CC(C)[C@@H]1N=C(c2ccccc2)c2cc(OC(F)(F)F)ccc2NC1=S [Example 25, (3S)-3-isopropyl-5-phenyl-7-(trifluoromethoxy)-1,3-dihydro-1,4-benzodiazepine-2-thione]
  IC50: 0.232 µM

## CC(C)(O)C1N=C(c2ccccc2)c2cc(Cl)ccc2NC1=S (stereo not shown) [Example 26, 7-chloro-3-(1-hydroxy-1-methyl-ethyl)-5-phenyl-1,3-dihydro-1,4-benzodiazepine-2-thione]
  IC50: 1.85 µM

## CC(C)C[C@@H]1N=C(c2ccccc2F)c2cc(Cl)ccc2NC1=S [Example 27, (3S)-7-Chloro-5-(2-fluorophenyl)-3-isobutyl-1,3-dihydro-1,4-benzodiazepine-2-thione]
  IC50: 0.641 µM

## S=C1Nc2ccccc2C(c2ccccc2)=NC1Cc1ccc(Cl)c(Cl)c1 (stereo not shown) [Example 28, 3-[(3,4-Dichlorophenyl)methyl]-5-phenyl-1,3-dihydro-1,4-benzodiazepine-2-thione]
  IC50: 1.67 µM

## Fc1ccccc1C1=N[C@@H](c2ccccc2)C(=S)Nc2ccc(Cl)cc21 [Example 29, (3S)-7-Chloro-5-(2-fluorophenyl)-3-phenyl-1,3-dihydro-1,4-benzodiazepine-2-thione]
  IC50: 1.47 µM

## S=C1Nc2ccc(Cl)cc2C(c2ccccc2)=NC1c1ccccc1 (stereo not shown) [Example 31, 7-chloro-3,5-diphenyl-1,3-dihydro-1,4-benzodiazepine-2-thione]
  IC50: 0.799 µM

## CC(C)[C@@H]1N=C(c2cccnc2)c2cc(Br)ccc2NC1=S [Example 32, (3S)-7-bromo-3-isopropyl-5-(3-pyridyl)-1,3-dihydro-1,4-benzodiazepine-2-thione]
  IC50: 0.275 µM

## CSCC[C@@H]1N=C(c2ccccc2)c2cc(Cl)ccc2NC1=S [Example 33, (3S)-7-chloro-3-(2-methylsulfanylethyl)-5-phenyl-1,3-dihydro-1,4-benzodiazepine-2-thione]
  IC50: 1.2 µM

## CC(C)[C@H]1N=C(c2ccccc2F)c2cc(Cl)ccc2NC1=S [Example 34, (3R)-7-chloro-5-(2-fluorophenyl)-3-isopropyl-1,3-dihydro-1,4-benzodiazepine-2-thione]
  IC50: 0.42 µM

## CC(C)[C@H]1N=C(c2ccccc2)c2cc(Cl)ccc2NC1=S [Example 35, (3R)-7-chloro-3-isopropyl-5-phenyl-1,3-dihydro-1,4-benzodiazepine-2-thione]
  IC50: 0.521 µM

## CC(C)C[C@@H]1N=C(c2ccccc2)c2cc(Cl)ccc2NC1=S [Example 36, (S)-7-Chloro-3-isobutyl-5-phenyl-1,3-dihydro-benzo[e][1,4]diazepine-2-thione]
  IC50: 0.317 µM

## CCC1N=C(c2ccccc2F)c2cc(N)ccc2NC1=S (stereo not shown) [Example 37, 7-amino-3-ethyl-5-(2-fluorophenyl)-1,3-dihydro-1,4-benzodiazepine-2-thione]
  IC50: 6.06 µM

## COC(C)C1N=C(c2ccccc2)c2cc(Cl)ccc2NC1=S (stereo not shown) [Example 38, 7-chloro-3-(1-methoxyethyl)-5-phenyl-1,3-dihydro-1,4-benzodiazepine-2-thione]
  IC50: 0.354 µM

## CC(C)[C@@H]1N=C(C2CCCCC2)c2cc(Cl)ccc2NC1=S [Example 39, (3S)-7-chloro-5-cyclohexyl-3-isopropyl-1,3-dihydro-1,4-benzodiazepine-2-thione]
[1]
  IC50: 0.414 µM

## COc1ccc2c(c1)C(c1ccccc1)=N[C@@H](C(C)C)C(=S)N2 [Example 40, (3S)-3-isopropyl-7-methoxy-5-phenyl-1,3-dihydro-1,4-benzodiazepine-2-thione]
  IC50: 0.559 µM

## CC1N=C(c2ccccc2)c2ccccc2NC1=S (stereo not shown) [Example 41, 3-methyl-5-phenyl-1,3-dihydro-1,4-benzodiazepine-2-thione]
  IC50: 0.552 µM

## CCC1CN(c2ccccc2)c2cc(Cl)ccc2NC1=S (stereo not shown) [Example 42]
  IC50: 0.05 µM
